Where “and” joins values, the source holds several entries; their conditions need not be identical. Identical values can stand only once.
Key:
[1] = biological target: T1, plasmalemmal DA transporter (DAT) (Rattus norvegicus, UniProt P23977); test: Plasmalemmal [3H]DA uptake in striatal synaptosomes prepared from treated rats; type: in vivo; conditions: MDMA 4 x 10 mg/kg s.c.
T1 construct: from tissue; host or cells: striatum of male Sprague-Dawley rats (synaptosomes, P2)
Description: Uptake of [^3H]DA was determined in striatal synaptosomes prepared according to the method described by Kokoshka et al. (1998). Briefly, fresh striatal tissue was homogenized in cold 0.32 M sucrose and centrifuged (800×g for 12 min; 4° C.). The supernatant (S1) was then centrifuged (22,000×g for 15 min; 4° C.), and the resulting pellet (P2) was resuspended in ice-cold modified Kreb's buffer (in mM: 126 NaCl, 4.8 KCl, 1.3 CaCl2, 16 sodium phosphate, 1.4 MgSO4, 11 dextrose, 1-ascorbic acid, pH 7.4). Assays were conducted in Kreb's buffer. Each assay tube contained synaptosomal tissue (i.e., resuspended P2 obtained from 1.5 mg of original wet weight striatal tissue) and 1 μM pargyline. Nonspecific values were determined in the presence of 100 μM cocaine. After preincubation of assay tubes for 10 min at 37° C., assays were initiated by the addition of [^3H]DA (0.5 nM final concentration). Samples were incubated at 37° C. for 3 min. Samples were then filtered through Whatman GF/B filters (Brandel, Gaithersburg, Md.) soaked previously in 0.05% polyethylenimine. Filters were washed rapidly 3 times with 3 ml of ice-cold 0.32 M sucrose using a Brandel filtering manifold. […] Remaining resuspended P2 samples were assayed for protein concentrations according to the method of Lowry et al. (1951). In MDMA preincubation experiments, samples were preincubated with 10 μM MDMA for 30 min at 37° C. After 30 min, resuspended P2 fractions were “washed” by centrifugation (22,000×g for 15 min; 4° C.). The resulting pellet (P3) was then resuspeded in ice-cold Kreb's buffer, and once again centrifuged (22,000×g for 15 min; 4° C.) to obtain a P4 pellet that was subsequently resuspended and assayed. [^3H]WIN35428 binding (0.5 nM final concentration) was conducted in phosphate-buffered 0.32 M sucrose, pH 7.4, with synaptosomes obtained from 2 mg (original wet weight) of striatal tissue per reaction tube, and samples were incubated on ice for 2 hr. Samples were then filtered through Whatman GF/B filters (Brandel, Gaithersburg, Md.) soaked previously in 0.05% polyethylenimine. […]

VMAT-2 [2] = biological target: VMAT-2 (Mus musculus, UniProt Q8BRU6); test: Vesicular [3H]dopamine uptake in striatal vesicles prepared from treated mice; type: in vivo; conditions: MDMA 4 x 10 mg/kg s.c.
Description: (A. E. Fleckenstein, et al., J. Pharmacol Exp Ther. (1997) 282:834-838). Briefly, fresh tissue was homogenized in ice-cold 0.32 M sucrose. The homogenate was centrifuged (800×g for 12 min; 4° C.), and the supernatant (S1) was carefully removed and centrifuged (22,000×g for 15 min; 4° C.) to obtain the synaptosomal-containing pellet (P2). The resulting P2 were resuspended and homogenized in ice-cold distilled deionized water. Osmolarity was restore by addition 25 mM HEPES and 100 mM potassium tartrate (final concentration; pH 7.5 at 4° C. respectively). […] The resultant S3 removed and MgSO4 added (final concentration of [1 mM] pH 7.5 at 4° C.) and centrifuged at 100,000×g for 45 min. The final P4 were resuspended at 50 mg/ml (original tissue wet weight).

VMAT-2 [3] = biological target: T2, VMAT-2 (Rattus norvegicus, UniProt Q01827); type: in vivo; set-up: purified striatal vesicles prepared from treated rats; from tissue; host or cells: striatum of male Sprague-Dawley rats (synaptic vesicles; P2, P3, S3 fractions); conditions: rats, MDMA 4 x 10 mg/kg s.c.
Description: Osmolarity was restored by addition of N-(2-hydroxyethyl)-piperazine-N′-2-ethanesulfonic acid (HEPES) and potassium tartrate 25 mM and 100 mM (final concentrations; pH 7.5 at 4° C.), respectively.

DAT [4] = biological target: T3, DAT (Rattus norvegicus, UniProt P23977); test: In vitro preincubation of striatal synaptosomes with MDMA: [3H]DA uptake and WIN35428 binding; type: biochemical; conditions: 30 min, 37° C.
T3 construct: from tissue; host or cells: striatum of male Sprague-Dawley rats (synaptosomes, P2)
Description: (§1) Uptake of [^3H]DA was determined in striatal synaptosomes prepared according to the method described by Kokoshka et al. (1998). Briefly, fresh striatal tissue was homogenized in cold 0.32 M sucrose and centrifuged (800×g for 12 min; 4° C.). The supernatant (S1) was then centrifuged (22,000×g for 15 min; 4° C.), and the resulting pellet (P2) was resuspended in ice-cold modified Kreb's buffer (in mM: 126 NaCl, 4.8 KCl, 1.3 CaCl2, 16 sodium phosphate, 1.4 MgSO4, 11 dextrose, 1-ascorbic acid, pH 7.4). Assays were conducted in Kreb's buffer. Each assay tube contained synaptosomal tissue (i.e., resuspended P2 obtained from 1.5 mg of original wet weight striatal tissue) and 1 μM pargyline. Nonspecific values were determined in the presence of 100 μM cocaine. After preincubation of assay tubes for 10 min at 37° C., assays were initiated by the addition of [^3H]DA (0.5 nM final concentration). Samples were incubated at 37° C. for 3 min. Samples were then filtered through Whatman GF/B filters (Brandel, Gaithersburg, Md.) soaked previously in 0.05% polyethylenimine. Filters were washed rapidly 3 times with 3 ml of ice-cold 0.32 M sucrose using a Brandel filtering manifold. […] Remaining resuspended P2 samples were assayed for protein concentrations according to the method of Lowry et al. (1951). In MDMA preincubation experiments, samples were preincubated with 10 μM MDMA for 30 min at 37° C. After 30 min, resuspended P2 fractions were “washed” by centrifugation (22,000×g for 15 min; 4° C.). The resulting pellet (P3) was then resuspeded in ice-cold Kreb's buffer, and once again centrifuged (22,000×g for 15 min; 4° C.) to obtain a P4 pellet that was subsequently resuspended and assayed. [^3H]WIN35428 binding (0.5 nM final concentration) was conducted in phosphate-buffered 0.32 M sucrose, pH 7.4, with synaptosomes obtained from 2 mg (original wet weight) of striatal tissue per reaction tube, and samples were incubated on ice for 2 hr. Samples were then filtered through Whatman GF/B filters (Brandel, Gaithersburg, Md.) soaked previously in 0.05% polyethylenimine. Filters were washed rapidly 3 times with 3 ml of ice-cold 0.32 M sucrose using a Brandel filtering manifold. […] Remaining resuspended P2 samples were assayed for protein concentrations according to the method of Lowry et al. (1951).

DAT [5] = biological target: T3, DAT; test: [3H]WIN35428 binding in striatal synaptosomes prepared from treated rats; type: in vivo; conditions: MDMA 4 x 10 mg/kg s.c.
Description: as §1

[6] = biological target: T1, plasmalemmal DA transporter (DAT); conditions: MDMA-treated rats, multiple high-dose, Metzger et al., 1998, cited from earlier work
VMAT-2 [7] = biological target: T2, VMAT-2; test: [3H]DHTBZ binding in purified striatal vesicles prepared from treated rats; conditions: rats, MDMA 4 x 10 mg/kg s.c., both 1 and 24 h after treatment
Description: Synaptic vesicles were obtained from synaptosomes prepared from rat striatum as described above. Synaptosomes were resuspended and homogenized in cold distilled deionized water. Osmolarity was restored by addition of HEPES and potassium tartrate 245 and 100 mM (final concentrations; pH 7.5), respectively. Samples were centrifuged for 20 min at 20,000×g (4° C.) to remove lysed synaptosomal membranes. MgSO4 (1 mM, final concentration) was added to the supernatant, which was then centrifuged for 45 min at 100,000×g (4° C.). The resulting vesicular pellet was resuspended in wash buffer at a concentration of 50 mg/ml (original tissue weight). […] Binding of [^3H]DHTBZ was performed as described by Teng et al. (1998). Briefly, 200 μl of the synaptic vesicle preparation (˜6 μg of protein) was incubated in wash buffer in the presence of [^3H]DHTBZ (2 nM final concentration) for 10 min at 25° C. The reaction was terminated by addition of 1 ml of cold wash buffer and rapid filtration through Whatman GF/F filters soaked in 0.5% polyethylenimine. Filters were washed three times with ice-cold wash buffer. Nonspecific binding was determined by coincubation with 20 μM tetrabenazine. All protein concentrations were determined by a BioRad protein assay (Bio-Rad, Richmond, Calif.).
Binding of [^3H]DHTBZ was performed as described by Teng et al. (1998). Briefly, 200 μl (˜6 μg protein) of the synaptic vesicle preparation was incubated in wash buffer in the presence of [^3H]DHTBZ (2 nM final concentration except in kinetic analyses wherein 0.25-500 nM DHTBZ was employed) for 10 m in at 25° C. The reaction was terminated by addition of 1 ml cold wash buffer and rapid filtration through Whatman GF/F filters soaked in 0.5% polyethylenimine. Filters were washed three times with ice-cold wash buffer. Radioactivity trapped in filters was counted using a liquid scintillation counter. Nonspecific binding was determined by coincubation with 20 μM TBZ. All protein concentrations were determined by a Bio-Rad protein assay (Bio-Rad Inc.).
Binding of[^3H]DHTBZ was performed as described by Teng et al. (1998). Briefly, 200 μl (˜5 μg protein) of the synaptic vesicle preparation was incubated in wash buffer in the presence of [^3H]DHTBZ (2 nM final concentration except in kinetic analyses wherein 0.25-500 nM DHTBZ was employed) for 10 m in at 25° C. The reaction was terminated by addition of 1 ml cold wash buffer and rapid filtration through Whatman GF/F filters soaked in 0.5% polyethylenimine. Filters were washed three times with ice-cold wash buffer. Radioactivity trapped in filters was counted using a liquid scintillation counter. Nonspecific binding was determined by coincubation with 20 μM TBZ. All protein concentrations were determined by a Bio-Rad protein assay (Bio-Rad Inc.).

T3 sequence (P23977 whole entry): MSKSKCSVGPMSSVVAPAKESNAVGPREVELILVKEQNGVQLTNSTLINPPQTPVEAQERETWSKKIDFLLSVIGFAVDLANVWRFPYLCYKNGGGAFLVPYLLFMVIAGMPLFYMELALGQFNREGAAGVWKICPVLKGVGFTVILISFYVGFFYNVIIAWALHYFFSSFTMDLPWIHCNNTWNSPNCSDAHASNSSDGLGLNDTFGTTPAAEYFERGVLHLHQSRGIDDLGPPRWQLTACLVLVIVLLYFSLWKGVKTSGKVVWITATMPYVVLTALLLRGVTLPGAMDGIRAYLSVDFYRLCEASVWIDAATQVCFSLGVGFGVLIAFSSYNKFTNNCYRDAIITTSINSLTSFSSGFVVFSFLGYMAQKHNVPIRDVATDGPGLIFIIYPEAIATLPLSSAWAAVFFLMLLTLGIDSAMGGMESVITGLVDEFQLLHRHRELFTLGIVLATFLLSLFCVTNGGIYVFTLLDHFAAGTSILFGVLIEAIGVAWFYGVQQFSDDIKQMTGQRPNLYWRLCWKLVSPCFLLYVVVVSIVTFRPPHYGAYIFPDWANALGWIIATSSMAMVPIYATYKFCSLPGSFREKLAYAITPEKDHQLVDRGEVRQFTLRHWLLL
T1 sequence (P23977 whole entry): as above
T2 sequence (Q01827 whole entry): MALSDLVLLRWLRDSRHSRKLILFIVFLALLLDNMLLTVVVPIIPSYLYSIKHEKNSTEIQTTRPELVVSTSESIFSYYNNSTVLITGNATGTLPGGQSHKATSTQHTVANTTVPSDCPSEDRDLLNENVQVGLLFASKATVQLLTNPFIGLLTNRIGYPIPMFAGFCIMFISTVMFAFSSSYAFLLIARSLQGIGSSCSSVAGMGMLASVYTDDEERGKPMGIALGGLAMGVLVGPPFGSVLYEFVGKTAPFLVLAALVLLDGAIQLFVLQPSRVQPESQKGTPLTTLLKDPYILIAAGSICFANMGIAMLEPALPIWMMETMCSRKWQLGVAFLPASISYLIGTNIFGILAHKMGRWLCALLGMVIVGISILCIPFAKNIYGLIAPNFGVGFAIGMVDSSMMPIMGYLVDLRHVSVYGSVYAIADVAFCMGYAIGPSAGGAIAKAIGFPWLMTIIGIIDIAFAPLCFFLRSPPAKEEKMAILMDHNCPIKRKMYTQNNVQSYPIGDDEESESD
Chain of VMAT-2 (Mus musculus, UniProt Q8BRU6) (Q8BRU6 whole entry): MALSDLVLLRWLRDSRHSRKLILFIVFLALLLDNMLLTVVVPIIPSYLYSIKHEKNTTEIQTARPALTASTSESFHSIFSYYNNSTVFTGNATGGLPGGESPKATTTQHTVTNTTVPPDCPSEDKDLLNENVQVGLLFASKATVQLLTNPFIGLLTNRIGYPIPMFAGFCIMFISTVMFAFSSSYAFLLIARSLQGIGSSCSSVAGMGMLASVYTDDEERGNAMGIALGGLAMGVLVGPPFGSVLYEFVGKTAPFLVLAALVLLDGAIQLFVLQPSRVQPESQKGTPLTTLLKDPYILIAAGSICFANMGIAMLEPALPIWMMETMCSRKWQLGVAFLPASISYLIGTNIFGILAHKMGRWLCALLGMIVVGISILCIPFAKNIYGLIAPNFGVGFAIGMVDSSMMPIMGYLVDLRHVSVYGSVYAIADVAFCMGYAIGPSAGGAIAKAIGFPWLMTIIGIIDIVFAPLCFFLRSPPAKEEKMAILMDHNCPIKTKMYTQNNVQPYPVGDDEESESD

CNC(C)Cc1ccc2c(c1)OCO2 (stereo not drawn) [MDMA, methylenedioxymethamphetamine]
magnitude of the decrease in plasmalemmal DA uptake ([1]; 2-h intervals, 1 h): 35-55% | deficit in plasmalemmal DA uptake 24 h after drug treatment ([1]; 24 h): reversed | vesicular dopamine uptake after multiple MDMA administrations (VMAT-2 [2]; 1 h): rapidly decreased | decrease in vesicular dopamine uptake 24 h later (VMAT-2 [2]; 24 h): largely reversed | deficit in vesicular DA uptake (VMAT-2 [3]; 1 h): 25-30% | vesicular DA uptake 1 h after multiple MDMA administrations (VMAT-2 [3]; 1 h): rapidly decreased | deficit in vesicular DA uptake 24 h after drug treatment (VMAT-2 [3]; 24 h): partially recovered | WIN35428 binding after incubation of synaptosomes with MDMA (DAT [4]; MDMA 10 μM): no effect | decrease in DA uptake in vitro (DAT [4]; striatal synaptosomes incubated with MDMA 10 μM): 35-55% | WIN35428 binding in the body temperature experiment (DAT [5]; 6 or 24° C. ambient, 1 h (data not shown)): not affected | decrease in WIN35428 binding (DAT [5]; 1 h after treatment): 10% and 18% | deficit in WIN35428 binding 24 h after drug treatment (DAT [5]; 24 h): persisted | Vmax of plasmalemmal DA uptake [6]: 1410 fmol/μg/5 min | Km ([6]; read-out: transporter Km of plasmalemmal DA uptake): 98.9 nM | binding of the VMAT-2 ligand [3H]DHTBZ (VMAT-2 [7]): reduced

Source: patent publication US20060241082A1, “Modulating vesicular monoamine transporter trafficking and function: a novel approach for the treatment of parkinson's disease” (priority 2002, published 2006)
